# Earlier results in US20040265249A1, “Composition for protecting skin from damaging effects of ultraviolet light” (Desert Whale Jojoba Company, priority 2003, published 2004).
# Settings: Yagi K, Ohishi N, 1979
compound,measurement,value
COc1cc(/C=C/C(=O)O)ccc1O [ferulic acid],antioxidant action,can scavenge free radicals
